“Also recorded” adds a separate entry of the source. Where two headings read alike, the source gives them in different places.
Assays:
[1] = target: T1, interaction between HPV-16 E6 and E6AP (Human papillomavirus type 16, UniProt P03126); test: biochemical; format: binding; settings: for Emax: read-out: Maximal Inhibition; for activity and potency in E6/E6AP binding assay (in words): SAR library, initial 5-point dose range 12.3 µM to 1 mM
T1 construct: made in house; host or cells: E. coli BL21
Protocol: To characterize potential E6 inhibitors, a robust in vitro assay was developed to measure the interaction between HPV-16 E6 and E6AP. […] The core 70 amino acids of the E6 binding region of E6AP (residues 371-440) was fused to bacterial alkaline phosphatase (BAP) in the MY101 vector [40]. […] Binding efficiency was determined from the intensity of BAP activated chemiluminescence remaining in each well.
Kinetic analysis was performed to characterize the protein-protein interaction inherent in this assay.
The collection of 72 available structural-lead compounds was tested in the filter-plate based in vitro E6-E6AP binding assay. […] Compounds that disrupted the Flag-BAP interaction with the same potency as the HPV-16 E6 and E6AP interaction were classified as non-specific and eliminated from further analysis. […]
(§1) Pre-Block - 96-well filter plates were prepared (0.2 µm BioTrace NT, Pall). 100µL of blocking buffer (100 mM Tris pH 8.0, 100 mM NaCl, 0.1% milk) was added per well. Plates were blocked for 1 hr at RT on an orbital shaker. Buffer was removed by vacuum filtration using a vacuum manifold. GST-E6 Bead addition – GST-E6 beads were prepared at 5µg/mL in GST-E6 bead buffer (100 mM Tris pH 8.0, 100 mM NaCl, 0.1% milk, 2.5 mM DTT). 100µL of GST-E6 bead mix was added per well and incubated for 1 hr at 4°C. Buffer was removed by vacuum filtration. […] 48 µL of each reagent was added per well. For drug assay, 2µL of compound was added to each well and mixed thoroughly. […] Plates were incubated for 1-3 hours at RT on an orbital shaker. Buffer was removed by vacuum filtration. Plates were washed on the vacuum manifold, first with 200 µL buffer (100 mM Tris pH 8.0, 100 mM NaCl, 1 mM DTT), and twice more with 100µL lysis buffer without DTT. Plates were cleared and dried with on the vacuum manifold. Assay – Immunostar assay reagent was prepared and equilibrated to RT prior to addition. 60 µL of Immunostar-AP assay reagent was added, the BAP activity was allowed to develop for 10 minutes and the plates were read on a Wallace Luminometer. BAP activity was measured as relative light units (RLU) on a luminometer using the Immunostar-AP substrate (BioRad).

[2] = system: interaction between anti-FLAG antibody and the FLAG epitope in the E6AP-BAP fusion; test: FLAG/BAP specificity filter binding assay
Protocol: The collection of 72 available structural-lead compounds was tested in the filter-plate based in vitro E6-E6AP binding assay. Compounds were tested twice at concentrations of 10, 50, and 100 µM. […] Compounds that disrupted the Flag-BAP interaction with the same potency as the HPV-16 E6 and E6AP interaction were classified as non-specific and eliminated from further analysis.
Figure 3 Activity of flavonoids in the in vitro binding assay. Compounds were tested in vitro for the ability to disrupt the E6-E6AP interaction. […] Percent inhibition was determined by the amount of BAP activity remaining in the well after washing and normalized to DMSO. Data was plotted by linear regression for single site binding using Prism (n=3, S.E.M.).
(§2) This interaction between E6 and hDlg occurs at the C-terminus of E6 and is independent of the interaction between E6 and the charged leucine helix in E6AP [21, 22].

[3] = target: T2, interaction between GST-E6 and three PDZ domains of hDlg fused to BAP (hDlg-BAP) (Human papillomavirus type 16, UniProt P03126); test: E6/hDlg-BAP specificity filter binding assay; design: species or system HPV-16
T2 construct: made in house; host or cells: E. coli BL21
Protocol: as §2
as §1, with “Plates were cleared and dried with on the vacuum manifold. Assay – Immunostar assay reagent was prepared and equilibrated to RT prior to addition.” left out

MBP-E6 = target: T3, MBP-E6 (Human papillomavirus type 16, UniProt P03126); test: thermal shift (Sypro Orange) assay; format: binding, HPV-16; settings: versus DMSO; for effect on Tm of MBP-E6: 5-150 µM tested
T3 construct: made in house; host or cells: E. coli BL21DE(3)
Protocol: A thermal shift assay was used to assess compound binding to HPV E6. In this reaction, protein denaturation is measured by an increase in fluorescence from Sypro Orange as it binds to the newly exposed hydrophobic surfaces on the protein [48]. A protein stability curve is created as a measure of the rate of protein unfolding. The relative fluorescence is plotted against temperature and the melting temperature (Tm) is determined by calculating the temperature of peak fluorescence. Ligand binding can stabilize the protein and increase the Tm. The thermal profile of MBP-E6 proteins was investigated to determine if the flavonoid derivatives could stabilize MBP-E6 protein structure during heat-induced unfolding. […] The change in Tm (∆Tm) was plotted for each compound and compared to DMSO (Figure 10F,G ).
MBP-16E6 DNA, a kind gift from G. Travé [58], was transformed into BL21DE(3) E. coli. Protein expression was performed by inoculation of a 1 mL starter culture in 100 mL of Turbo-Broth containing 0.2 % lactose, 0.05% glucose and 0.6% glycerol at 20°C for 24 hrs. Cells were lysed in 50 mM Tris HCl pH 6.8, 300 mM NaCl, 0.1 % (v/v) NP-40, 2 mM DTT and 1x protease inhibitor cocktail (EDTA-free, Roche) and sonicated as described before. Cell lysate was cleared by centrifugation at 15000xg, 4°C for 30 min and equilibrated with amylose resin beads (New England Biolabs, Inc.) by inversion for 3 hrs at 4°C. Bound beads were washed one time in lysis buffer and four times with wash buffer (50 mM Tris-HCl pH 6.8, 400 mM NaCl, 2 mM DTT, 1x protease inhibitor cocktail). Bound MBP-E6 proteins were eluted using a final concentration of 20 mM maltose in 5 bed volumes of wash buffer. All steps were performed at 4°C. Protein concentration was measured by BCA (BioRad). Thermostability of MBP-E6 proteins was analyzed at a final concentration of 1 µM in reaction buffer (50 mM TrisHCl pH 6.8, 400 mM NaCl, 2 mM DTT). MBP-E6 proteins were equilibrated with CAF-8 (5 µM-150 µM), CAF-24 (5 µM-150 µM), CAF-26 (5 µM-150 µM) or DMSO for 30 min in reaction buffer. Sypro Orange, a hydrophobic fluorescent dye, was added at the end of the incubation period at a final concentration of 5X. The final DMSO concentration (1.8% v/v) was kept constant across the concentration range. Fluorescence was measured using the FRET channel of CFX96 Real-Time PCR thermal cycler (BioRad) over a temperature range of 25°C to 95°C. Temperature increments were set to 0.5°C for 30 sec followed by plate reading. Melt curves were determined in triplicate and repeated four times. Melt curves represent the relative fluorescence of the 1st derivative of four experiments. Melting temperature (Tm) was calculated by CFX manager software. The average melting temperature of the triplicate was used to calculate the ∆Tm for each experiment. ∆Tm values are expressed as the change vs. DMSO.

[4] = solubility in aqueous SPR buffers; format: physicochemical; settings: simple aqueous solution
[5] = system: HPV-16 E6 mediated p53 degradation; test: in vitro HPV-16 E6 mediated p53 degradation assay; format: biochemical
Protocol: In vitro expressed p53 was incubated in rabbit reticulocyte lysate in the presence or absence of in vitro expressed HPV16 E6. p53 levels were reduced in reaction containing E6 proteins (Figure 8 ).
Control reactions (no DNA, p53 alone) were incubated with 1 µL wheat germ extract and 2% DMSO in reaction buffer. In vitro translated p53 and rabbit reticulocyte lysate (RRL, Promega) were added to all reactions except the no DNA control reaction to which wheat germ extract was added instead of p53. Reactions were incubated for 3 hrs at 30°C and stopped by addition of 6X reducing SDS sample buffer and heating at 95°C for 5 min. Each reaction was loaded onto a 10% SDS-PAGE gel and transferred onto PVDF (0.45 µm). p53 and 16E6 were visualized using monoclonal p53 (Pab1801, 1:1000), monoclonal 16E6 (813, Arbor Vita Corporation, 1:4000) antibody and anti-mouse HRP-labeled secondary antibody (1:2000, Sigma-Aldrich).

[6] = target: T4, GST-HPV-16 E6 (human papillomavirus type 16), P03126; test: filter plate bead binding assay (BAP chemiluminescence); competition: peptide added to bead-bound GST-E6 and free E6AP-BAP; 1 hour incubations
T4 chain: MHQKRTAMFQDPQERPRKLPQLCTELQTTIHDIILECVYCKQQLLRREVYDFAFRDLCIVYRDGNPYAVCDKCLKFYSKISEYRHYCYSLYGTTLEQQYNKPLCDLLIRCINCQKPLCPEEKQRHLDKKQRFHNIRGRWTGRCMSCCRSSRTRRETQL

[7] = in silico leads retested in duplicate at 5 concentrations 5 to 250 µM

Molecule: O=c1cc(-c2ccccc2)oc2ccc(-c3nnn[nH]3)cc12 [CAF-26]
- IC50 [1]: 5.1 µM
- IC50 ([1]; full 7-point dose response, 0.5 µM to 333 µM, quadruplicate): low micromolar IC50 values
- Emax [1]: 97%
- non-specific inhibition / specificity in FLAG-E6AP control assay [2]: increased specificity against the FLAG and hDlg control binding reactions
- specificity against hDlg control binding reaction [3]: increased specificity against the FLAG and hDlg control binding reactions
- effect on Tm of MBP-E6 (MBP-E6): about 1 °C
- shift of MBP-E6 Tm (MBP-E6; at 25, 50 and 150 µM): ~1 °C
- aqueous solubility (in words) [4]: limited aqueous solubility

Molecule: COc1ccc(NC2Oc3cc(O)ccc3C=C2C(=O)Nc2cccc(C)n2)cc1OC (centres unmarked) [Compound 160]
- IC50 [1, 7]: low micromolar IC50 values
- non-specific inhibition / specificity in FLAG-E6AP control assay [2]: inhibited binding in the FLAG-E6AP assay

Molecule: O=C(O)c1cccc(-c2ccc3c(=O)cc(-c4ccccc4)oc3c2)c1 [CAF30]
- IC50 [1]: 47.3 µM
- Emax [1]: 84%

Molecule: COc1ccc(-c2ccc3oc(-c4ccccc4)cc(=O)c3c2)c(OC)c1C(=O)O [CAF29]
- IC50 [1]: 12.5 µM
- Emax [1]: 75%

Molecule: O=c1cc(-c2ccccc2)oc2ccc(-c3cccc(-c4nnn[nH]4)c3)cc12 [CAF27]
- IC50 [1]: 6.9 µM
- Emax [1]: 96%

Molecule: CC[C@H](C)[C@H](N)C(=O)N1CCC[C@H]1C(=O)N[C@@H](CCC(=O)O)C(=O)N[C@@H](CO)C(=O)N[C@@H](CO)C(=O)N[C@@H](CCC(=O)O)C(=O)N[C@@H](CC(C)C)C(=O)N[C@H](C(=O)N[C@@H](CC(C)C)C(=O)N[C@@H](CCC(N)=O)C(=O)N[C@@H](CCC(=O)O)C(=O)N[C@@H](CC(C)C)C(=O)N[C@@H](CC(C)C)C(=O)NCC(=O)N[C@@H](CCC(=O)O)C(=O)N[C@@H](CCC(=O)O)C(=O)N[C@@H](CCCNC(=N)N)C(=O)N[C@@H](CCCNC(=N)N)C(=O)O)[C@@H](C)O [E6AP 18-mer, reference compound]
- inhibition at 100 µM ([1]; read-out: inhibition of binding): 95%

Molecule: COc1cc(O)cc2oc(-c3ccc(O)c(O)c3)cc(=O)c12 [CAF-10]
- activity and potency in E6/E6AP binding assay (in words) [1]: same potency and activity as luteolin

Molecule: CC(=O)Oc1cc(OC(C)=O)c2c(=O)cc(-c3ccc(OC(C)=O)c(OC(C)=O)c3)oc2c1 [Compound 170]
- IC50 [1]: 44 µM
- activity and potency in E6/E6AP binding assay (in words) [1]: much lower activity and potency than observed with the initial hit
- IC50 [1, 7]: low micromolar IC50 values
- non-specific inhibition / specificity in FLAG-E6AP control assay [2]: more selective inhibitor of the E6-E6AP interaction

Molecule: CC(=O)Oc1cc(OC(C)=O)c2c(=O)c(OC(C)=O)c(-c3ccc(OC(C)=O)c(OC(C)=O)c3)oc2c1 [Compound 168]
- IC50 [1]: 44 µM
- IC50 [1, 7]: low micromolar IC50 values
- non-specific inhibition / specificity in FLAG-E6AP control assay [2]: some non-specific inhibitory activity

Molecule: O=c1cc(-c2ccc(O)c(O)c2)oc2cccc(O)c12 [CAF-13]
- increase of IC50 relative to luteolin [1]: 15-30 fold

Molecule: O=c1cc(-c2cccc(C(F)(F)F)c2)oc2ccc(-c3nnn[nH]3)cc12 [CAF25]
- IC50 [1]: 1.1 µM
- Emax [1]: 95%

Molecule: COc1ccc(CC2c3c(cc(OC)c(O)c3OC)CCN2C)cc1OC (centres unmarked) [Compound 117]
- IC50 [1, 7]: low micromolar IC50 values
- non-specific inhibition / specificity in FLAG-E6AP control assay [2]: inhibited binding in the FLAG-E6AP assay

Molecule: COc1cc(OC)c2c(=O)cc(-c3ccc(OC)c(OC)c3)oc2c1 [CAF-8]
- activity and potency in E6/E6AP binding assay (in words) [1]: no activity
- effect on E6 mediated p53 degradation ([5]; 10 µM compound pre-incubated with E6): did not alter E6 mediated p53 degradation
- effect on E6 mediated p53 degradation ([5]; 100 µM compound pre-incubated with E6): did not alter E6 mediated p53 degradation
- effect on Tm of MBP-E6 (MBP-E6): unable to significantly alter MBP-E6 melting temperature; also recorded: no measurable effect

Molecule: O=c1cc(-c2ccc(O)cc2)oc2cc(O)cc(O)c12 [CAF-14]
- increase of IC50 relative to luteolin [1]: 15-30 fold

Molecule: O=C(O)c1cc(-c2ccc3c(=O)cc(-c4ccccc4)oc3c2)ccc1Cl [CAF31]
- IC50 [1]: 62.2 µM
- Emax [1]: 86%

Molecule: O=C(O)c1cc(-c2ccc3c(=O)cc(-c4ccccc4)oc3c2)ccc1F [CAF32]
- IC50 [1]: 48 µM
- Emax [1]: 75%

Molecule: O=C(O)c1cccc(-c2ccc3oc(-c4cccc(O)c4)cc(=O)c3c2)c1 [CAF28]
- Emax [1]: 75%

Molecule: IPESSELTLQELLGEERR (modifications not checked) [E6AP 18-mer peptide]
- percent inhibition at 100 µM [6]: 95%

Source: article PMC3871595, “Structure Based Identification and Characterization of Flavonoids That Disrupt Human Papillomavirus-16 E6 Function” (PLoS ONE, 2013)
